Experimental data taken from patent US12611406B2, “Oxopiperazine derivatives for the treatment of cancer” (Inthera Bioscience AG, priority 2020, dated 2026).
Where two headings read alike, the source gives them in different places.

Columns and labels:
DU-145 cells = assay: Annexin V staining; assay type: cell-based
[1] = 14-day daily oral repeated-dose DRF study in cynomolgus monkeys (mesylate salt); assay type: in vivo; details: for half-life / AUC(0-t) / Cmax / Tmax: cynomolgus monkey, plasma
Description: The objective of this exploratory study was to assess the TK profile of Compound 1 when repeatedly administered via the oral route to cynomolgus monkeys.
Compound 1 (mesylate salt) administration in this dose-range-finder study was intended once daily for up to 14 consecutive days by oral gavage to groups of naïve cynomolgus monkeys (n=1/sex/group) at dose levels of 0.5, 4, 8, or 12 mg Compound 1 per kg bodyweight and day, using a staggered approach. The vehicle was 0.5% Methylcellulose in water. The actual dose levels and durations of dosing were flexibly adapted according to signs of tolerability and PK: Group 1 animals were dosed at 0.5 mg/kg/day for 10 days and after a 4-day washout phase for additional 12 days at 4 mg/kg/days; Group 2 animals at 12 mg/kg/day for 11 days; Group 3 animals at 8 mg/kg for 10 (males) or 9 (females) days; and Group 4 animals at 8 mg/kg for 5 days, respectively, as summarized in Table 10.
The animals in the final group 4 were dosed orally once daily or 5 days with 8 mg/kg Compound 1 before a 9-day recovery phase was given.

[2] = both sexes, po, 0.5 mg/kg, 0.5 mg/kg (Gr. 1), Day 1
[3] = both sexes, po, 8 mg/kg, 8 mg/kg (Gr. 3), Day 1
[4] = both sexes, po, 8 mg/kg, 8 mg/kg (Gr. 3), Day 5
[5] = both sexes, po, 8 mg/kg, 8 mg/kg (Gr. 4), Day 1
[6] = both sexes, po, 8 mg/kg, 8 mg/kg (Gr. 4), Day 5
[7] = both sexes, po, 12 mg/kg, 12 mg/kg (Gr. 2), Day 1
[8] = both sexes, po, 12 mg/kg, 12 mg/kg (Gr. 2), Day 7
[9] = po, 0.5 mg/kg, 0.5 mg/kg (Gr. 1), Day 7
[10] = po, 4 mg/kg, 4 mg/kg (Gr. 1), Day 1
[11] = po, 4 mg/kg, 4 mg/kg (Gr. 1), Day 5
[12] = po, 4 mg/kg, 4 mg/kg (Gr. 1), Day 11

SMILES: CC(C)C[C@@H]1NCCN([C@@H](CC(C)C)C(=O)N2CCC3(C[C@@H]2C)OCC(CN2CCCC2)CO3)C1=O (stereo partly drawn) [Compound 1, (S)-3-isobutyl-1-((S)-4-methyl-1-((S)-8-methyl-3-(pyrrolidin-1-ylmethyl)-1,5-dioxa-9-azaspiro[5.5]undecan-9-yl)-1-oxopentan-2-yl)piperazin-2-one]
- Annexin V staining (DU-145 cells): induction of apoptosis
- half-life ([1]; both sexes, oral, in general, all groups, read-out: mean terminal plasma elimination half-lives): 4.4 to 8.4 h
- AUC(0-t) [1, 2]: 0.7 ng·h/mL
- Cmax [1, 2]: 0.24 ng/mL
- Tmax [1, 2]: 1.5 h
- half-life ([1]; both sexes, po, 0.5 mg/kg, 0.5 mg/kg (Gr. 1), Day 1, read-out: T1/2 (converted)): 4.9 h
- half-life ([1]; both sexes, po, 4 mg/kg, 4 mg/kg (Gr. 1), Day 11, read-out: T1/2 (converted)): 5.1 h
- AUC(0-t) [1, 3]: 64.9 ng·h/mL
- Cmax [1, 3]: 21.7 ng/mL
- Tmax [1, 3]: 1 h
- half-life ([1]; both sexes, po, 8 mg/kg, 8 mg/kg (Gr. 3), Day 1, read-out: T1/2 (converted)): 4.6 h
- AUC(0-t) [1, 4]: 92 ng·h/mL
- Cmax [1, 4]: 18.8 ng/mL
- Tmax [1, 4]: 1 h
- half-life ([1]; both sexes, po, 8 mg/kg, 8 mg/kg (Gr. 3), Day 5, read-out: T1/2 (converted)): 6.5 h
- AUC(0-t) [1, 5]: 30.4 ng·h/mL
- Cmax [1, 5]: 8.95 ng/mL
- Tmax [1, 5]: 1 h
- half-life ([1]; both sexes, po, 8 mg/kg, 8 mg/kg (Gr. 4), Day 1, read-out: T1/2 (converted)): 5.4 h
- AUC(0-t) [1, 6]: 51.3 ng·h/mL
- Cmax [1, 6]: 13.8 ng/mL
- Tmax [1, 6]: 1.5 h
- half-life ([1]; both sexes, po, 8 mg/kg, 8 mg/kg (Gr. 4), Day 5, read-out: T1/2 (converted)): 6.4 h
- AUC(0-t) [1, 7]: 86 ng·h/mL
- Cmax [1, 7]: 31.2 ng/mL
- Tmax [1, 7]: 1 h
- half-life ([1]; both sexes, po, 12 mg/kg, 12 mg/kg (Gr. 2), Day 1, read-out: T1/2 (converted)): 6.6 h
- AUC(0-t) [1, 8]: 214 ng·h/mL
- Cmax [1, 8]: 48.8 ng/mL
- Tmax [1, 8]: 1 h
- half-life ([1]; both sexes, po, 12 mg/kg, 12 mg/kg (Gr. 2), Day 7, read-out: T1/2 (converted)): 7.4 h
- Tmax ([1]; both sexes, po, after oral administration, all groups): 1 to 1.5 h
- AUC(0-t) [1, 9]: 1.2 ng·h/mL
- Cmax [1, 9]: 0.18 ng/mL
- Tmax [1, 9]: 1 h
- half-life ([1]; po, 0.5 mg/kg, 0.5 mg/kg (Gr. 1), Day 7, read-out: T1/2 (converted)): 18.5 h
- AUC(0-t) [1, 10]: 10.5 ng·h/mL
- Cmax [1, 10]: 2.95 ng/mL
- Tmax [1, 10]: 1 h
- half-life ([1]; po, 4 mg/kg, 4 mg/kg (Gr. 1), Day 1, read-out: T1/2 (converted)): 4.4 h
- AUC(0-t) [1, 11]: 9.5 ng·h/mL
- Cmax [1, 11]: 2.3 ng/mL
- Tmax [1, 11]: 1 h
- half-life ([1]; po, 4 mg/kg, 4 mg/kg (Gr. 1), Day 5, read-out: T1/2 (converted)): 8.4 h
- AUC(0-t) [1, 12]: 10.9 ng·h/mL
- Cmax [1, 12]: 3.06 ng/mL
- Tmax [1, 12]: 1 h
- tolerability ([1]; daily 0.5 and 4 mg/kg/day for 10 or 12 days): tolerated
- tolerability ([1]; daily 8 and 12 mg/kg/day for 10 days): not tolerated
